# Measured values: ChEMBL document CHEMBL1201862, “PubChem BioAssay data set” (2004)
#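 Tested at 5 concentrations; 48 h exposure; 96-well plates; endpoints linearly interpolated, else capped at highest concentration. The concentration for 50% growth inhibition is given as GI50.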 Active and inactive are the calls of the source. Rule as the data show it: active = GI50 up to about 1.1 µM and inactive = higher.
# Key:
# Assay in all cases: NCI-60 cell line screen, 48 h
# HT-29 = tested on: HT-29
# SN12C = tested on: SN12C
# SF-539 = tested on: SF-539
# TK-10 = tested on: TK-10
# KM12 = tested on: KM12
# M19-MEL = tested on: M19-MEL
# DMS-273 = tested on: DMS-273
# IGROV-1 = tested on: IGROV-1
# HL-60 = tested on: HL-60
# SK-MEL-28 = tested on: SK-MEL-28
# A549 = tested on: A549
# UO-31 = tested on: UO-31
# XF498 = tested on: XF498
# A498 = tested on: A498
# RXF 393 = tested on: RXF 393
# M14 = tested on: M14
# CAKI-1 = tested on: CAKI-1
# OVCAR-3 = tested on: OVCAR-3
# SK-MEL-5 = tested on: SK-MEL-5
# NCI-H226 = tested on: NCI-H226
# EKVX = tested on: EKVX
# SNB-19 = tested on: SNB-19
# NCI-H460 = tested on: NCI-H460
# NCI-H522 = tested on: NCI-H522
# ACHN = tested on: ACHN
# LXFL 529 = tested on: LXFL 529
# UACC-257 = tested on: UACC-257
# SW-620 = tested on: SW-620
# COLO 205 = tested on: COLO 205
# CCRF-CEM = tested on: CCRF-CEM
# K562 = tested on: K562
# NCI-H23 = tested on: NCI-H23
# RXF 631 = tested on: RXF 631
# SK-OV-3 = tested on: SK-OV-3
# Malme-3M = tested on: Malme-3M
# SF-295 = tested on: SF-295
# SNB-75 = tested on: SNB-75
# SNB-78 = tested on: SNB-78
# HCT-15 = tested on: HCT-15
# SK-MEL-2 = tested on: SK-MEL-2
# HOP-92 = tested on: HOP-92
# HCC 2998 = tested on: HCC 2998
# MOLT-4 = tested on: MOLT-4
# HCT-116 = tested on: HCT-116
# OVCAR-5 = tested on: OVCAR-5
# HOP-62 = tested on: HOP-62
# UACC-62 = tested on: UACC-62
# RPMI-8226 = tested on: RPMI-8226
# U-251 = tested on: U-251
# SF-268 = tested on: SF-268
# OVCAR-4 = tested on: OVCAR-4
# OVCAR-8 = tested on: OVCAR-8
# DMS-114 = tested on: DMS-114
# 786-0 = tested on: 786-0
# HOP-18 = tested on: HOP-18
# KM-20L2 = tested on: KM-20L2
# SR = tested on: SR
# LOX IMVI = tested on: LOX IMVI
# DLD-1 = tested on: DLD-1
smiles,measurement,setting,value
CC(C(=O)Oc1ccc2ccccc2c1-c1c(O)ccc2ccccc12)c1ccccc1 (stereo unspecified),GI50,HT-29,14.8 µM (inactive)
same,GI50,SN12C,14.7 µM (inactive)
same,GI50,SF-539,16.3 µM (inactive)
same,GI50,TK-10,17.6 µM (inactive)
same,GI50,KM12,11.4 µM (inactive)
same,GI50,M19-MEL,15.5 µM (inactive)
same,GI50,DMS-273,> 10 µM (inactive)
same,GI50,IGROV-1,17.1 µM (inactive)
same,GI50,HL-60,13.2 µM (inactive)
same,GI50,SK-MEL-28,15.4 µM (inactive)
same,GI50,A549,13.6 µM (inactive)
same,GI50,UO-31,1.37 µM (inactive)
same,GI50,XF498,14.2 µM (inactive)
same,GI50,A498,15.9 µM (inactive)
same,GI50,RXF 393,11 µM (inactive)
same,GI50,M14,13.2 µM (inactive)
same,GI50,CAKI-1,11.5 µM (inactive)
same,GI50,OVCAR-3,12.6 µM (inactive)
same,GI50,SK-MEL-5,13.7 µM (inactive)
same,GI50,NCI-H226,10.1 µM (inactive)
same,GI50,EKVX,16.8 µM (inactive)
same,GI50,SNB-19,14.7 µM (inactive)
same,GI50,NCI-H460,13.7 µM (inactive)
same,GI50,NCI-H522,> 10 µM (inactive)
same,GI50,ACHN,13.7 µM (inactive)
same,GI50,LXFL 529,14.1 µM (inactive)
same,GI50,UACC-257,13.7 µM (inactive)
same,GI50,SW-620,15.2 µM (inactive)
same,GI50,COLO 205,17.1 µM (inactive)
same,GI50,CCRF-CEM,16.3 µM (inactive)
same,GI50,K562,15 µM (inactive)
same,GI50,NCI-H23,14.4 µM (inactive)
same,GI50,RXF 631,17.2 µM (inactive)
same,GI50,SK-OV-3,15.4 µM (inactive)
same,GI50,Malme-3M,17.4 µM (inactive)
same,GI50,SF-295,12.7 µM (inactive)
same,GI50,SNB-75,9.79 µM (inactive)
same,GI50,SNB-78,15.4 µM (inactive)
same,GI50,HCT-15,12.5 µM
same,GI50,SK-MEL-2,15.1 µM (inactive)
same,GI50,HOP-92,10.3 µM (inactive)
same,GI50,HCC 2998,14.5 µM (inactive)
same,GI50,MOLT-4,7.67 µM (inactive)
same,GI50,HCT-116,12.9 µM (inactive)
same,GI50,OVCAR-5,16.9 µM (inactive)
same,GI50,HOP-62,15.5 µM (inactive)
same,GI50,UACC-62,13 µM (inactive)
same,GI50,RPMI-8226,15.3 µM (inactive)
same,GI50,U-251,15.1 µM (inactive)
same,GI50,SF-268,> 10 µM (inactive)
same,GI50,OVCAR-4,10.9 µM (inactive)
same,GI50,OVCAR-8,18.8 µM (inactive)
same,GI50,DMS-114,12.3 µM (inactive)
same,GI50,786-0,14.8 µM (inactive)
COc1ccccc1NC(=O)CC(=O)n1nc(-c2ccccc2)c(/N=N/c2ccccc2[N+](=O)[O-])c1-c1ccccc1,GI50,HOP-18,> 100 µM (inactive)
same,GI50,HT-29,25.2 µM (inactive)
same,GI50,SN12C,> 100 µM (inactive)
same,GI50,SF-539,> 100 µM (inactive)
same,GI50,TK-10,> 100 µM (inactive)
same,GI50,KM12,36.1 µM (inactive)
same,GI50,M19-MEL,51.2 µM (inactive)
same,GI50,DMS-273,> 100 µM (inactive)
same,GI50,IGROV-1,> 100 µM (inactive)
same,GI50,HL-60,> 100 µM (inactive)
same,GI50,SK-MEL-28,30 µM (inactive)
same,GI50,A549,> 100 µM (inactive)
same,GI50,UO-31,38.4 µM (inactive)
same,GI50,XF498,> 100 µM (inactive)
same,GI50,RXF 393,44.7 µM (inactive)
same,GI50,M14,> 100 µM (inactive)
same,GI50,CAKI-1,> 100 µM (inactive)
same,GI50,OVCAR-3,69 µM (inactive)
same,GI50,SK-MEL-5,94.4 µM (inactive)
same,GI50,NCI-H226,0.612 µM (active)
same,GI50,EKVX,44.5 µM (inactive)
same,GI50,SNB-19,> 100 µM (inactive)
same,GI50,NCI-H460,> 100 µM (inactive)
same,GI50,NCI-H522,> 100 µM (inactive)
same,GI50,ACHN,32.2 µM (inactive)
same,GI50,LXFL 529,83.2 µM (inactive)
same,GI50,UACC-257,> 100 µM (inactive)
same,GI50,SW-620,> 100 µM (inactive)
same,GI50,COLO 205,95.5 µM (inactive)
same,GI50,KM-20L2,> 100 µM (inactive)
same,GI50,SR,> 100 µM (inactive)
same,GI50,CCRF-CEM,> 100 µM (inactive)
same,GI50,K562,80.7 µM (inactive)
same,GI50,NCI-H23,98.4 µM (inactive)
same,GI50,RXF 631,> 100 µM (inactive)
same,GI50,SK-OV-3,> 100 µM (inactive)
same,GI50,LOX IMVI,> 100 µM (inactive)
same,GI50,Malme-3M,> 100 µM (inactive)
same,GI50,SF-295,> 100 µM (inactive)
same,GI50,SNB-75,17.8 µM (inactive)
same,GI50,SNB-78,> 100 µM (inactive)
same,GI50,SK-MEL-2,> 100 µM (inactive)
same,GI50,HOP-92,81.7 µM (inactive)
same,GI50,HCC 2998,70 µM (inactive)
same,GI50,MOLT-4,64.7 µM (inactive)
same,GI50,HCT-116,71.6 µM (inactive)
same,GI50,OVCAR-5,64.1 µM (inactive)
same,GI50,HOP-62,> 100 µM (inactive)
same,GI50,DLD-1,42.3 µM (inactive)
same,GI50,UACC-62,> 100 µM (inactive)
same,GI50,RPMI-8226,74.5 µM (inactive)
same,GI50,U-251,56.5 µM (inactive)
same,GI50,SF-268,95.3 µM (inactive)
same,GI50,OVCAR-4,> 100 µM (inactive)
same,GI50,OVCAR-8,> 100 µM (inactive)
same,GI50,DMS-114,25.6 µM (inactive)
same,GI50,786-0,> 100 µM (inactive)
